Consider 3 compounds from patent US8846669B2, “Oxazolidinone derivative and medical composition containing same” (Legochem Biosciences, Inc., priority 2011, dated 2014).

≈ marks a conversion by molar mass, not a printed value. Read-outs that look alike come from different tables or passages of the source.

For orientation: MIC90 means an inhibitory concentration at the 90% level, which refers to growth in some studies and to a panel of isolates in others.

Experiment in all cases: In vitro antibacterial activity, broth microdilution MIC90
What all share (assay type): cell-based

The subject of one test is Moraxella catarrhalis. As to conditions: strain 12, M. catarrhalis. In a few lines: (§1)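 MIC90 read out by broth microdilution following CLSI standards. Test material ranged from 0.063 to 128 μg/mL final, DMSO at 2.5% (V/V).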
Test [1] relates to Linezolid and Vancomycin Resistant Enterococcus faecium (strain 11). The conditions noted are these: strain 11, E. faecium VanA LR. In a few lines:
as §1

For test [2], the system named is Vancomycin Resistant Enterococcus faecalis. The conditions noted are these: strain 6, E. faecalis VanA. Put shortly: as §1
The test system of test [3] is Methicillin Resistant Staphylococcus aureus. The conditions noted are these: strain 2, S. aureus MR. In a few lines:
as §1

Test [4] concerns Vancomycin Resistant Enterococcus faecium. As to conditions: strain 9, E. faecium VanA. In a few lines:
as §1

The test system of test [5] is Methicillin Resistant Staphylococcus epidermidis. As to conditions: strain 4, S. epidermidis MR. Put shortly: as §1
For test [6], the system named is Linezolid and Vancomycin Resistant Enterococcus faecalis. As to conditions: strain 7, E. faecalis VanA LR. Put shortly: as §1
The subject of test [7] is Linezolid and Vancomycin Resistant Enterococcus faecium (strain 10). As to conditions: strain 10, E. faecium VanA LR. Put shortly: as §1
In another test the test system is Staphylococcus aureus. The conditions noted are these: strain 1, S. aureus. Put shortly: as §1
For test [8], the system named is Staphylococcus epidermidis. As to conditions: strain 3, S. epidermidis. Put shortly: as §1
A further test deals with Enterococcus faecalis. As to conditions: strain 5, E. faecalis. In a few lines: as §1
A further test deals with Enterococcus faecium. The conditions noted are these: strain 8, E. faecium. Put shortly: as §1
Where [9] appears, read: Enterococcus faecium, read-out: MIC90.
[10] abbreviates: Enterococcus faecalis, read-out: MIC90.
Where [11] appears, read: Staphylococcus aureus, read-out: MIC90.
Where [12] appears, read: Staphylococcus epidermidis, read-out: MIC90.

As to `CN1CCN(c2ccc(-c3ccc(N4C[C@H](CNc5ccon5)OC4=O)cc3F)cn2)C=N1` [Compound 40], the MIC90 against Moraxella catarrhalis is 2 µg/mL (≈ 4.43 µM); in [1] it was 4 µg/mL (≈ 8.86 µM); in [2], 1 µg/mL (≈ 2.22 µM); in test [3], 0.25 µg/mL (≈ 0.554 µM); in test [4], 0.5 µg/mL (≈ 1.11 µM); in test [5] it was 2 µg/mL (≈ 4.43 µM). For the same compound, the MIC90 in test [6] was 2 µg/mL (≈ 4.43 µM); in test [7], 4 µg/mL (≈ 8.86 µM); in the test with Staphylococcus aureus, 0.25 µg/mL (≈ 0.554 µM); in [8], 0.5 µg/mL (≈ 1.11 µM); against Enterococcus faecalis it was 0.5 µg/mL (≈ 1.11 µM); in the test with Enterococcus faecium, 0.125 µg/mL (≈ 0.277 µM).

As to `COC(=O)NC[C@H]1CN(c2ccc(-c3ccc(C4=NOCCN4)nc3)c(F)c2)C(=O)O1` [Compound 65], the MIC90 came out at 2 µg/mL (≈ 4.66 µM) in the test with Moraxella catarrhalis (Moraxella catarrhalis, read-out: MIC90); 4 µg/mL (≈ 9.32 µM) in test [1] (setting [9]); 0.5 µg/mL (≈ 1.16 µM) in [2] (setting [10]); 0.5 µg/mL (≈ 1.16 µM) in test [3] (setting [11]); 0.5 µg/mL (≈ 1.16 µM) in [4] (setting [9]); 1 µg/mL (≈ 2.33 µM) in test [5] (setting [12]). The MIC90 worked out at 4 µg/mL (≈ 9.32 µM) in test [6] (setting [10]); 4 µg/mL (≈ 9.32 µM) in [7] (setting [9]); 0.5 µg/mL (≈ 1.16 µM) with Staphylococcus aureus (setting [11]); 0.5 µg/mL (≈ 1.16 µM) in test [8] (setting [12]); 0.5 µg/mL (≈ 1.16 µM) in the test on Enterococcus faecalis (setting [10]); 0.5 µg/mL (≈ 1.16 µM) with Enterococcus faecium (setting [9]).

For `Cl.O=C1O[C@@H](COc2ccon2)CN1c1ccc(-c2ccc(N3C=NNCC3)nc2)c(F)c1` [Compound 44], the MIC90 is above 128 µg/mL against Moraxella catarrhalis; 16 µg/mL in [1]; 4 µg/mL in test [2]; 1 µg/mL in test [3]; 2 µg/mL in test [4]; 4 µg/mL in test [5]. Moreover, the MIC90 came to 16 µg/mL in [6]; 16 µg/mL in test [7]; 0.5 µg/mL against Staphylococcus aureus; 1 µg/mL in test [8]; 4 µg/mL with Enterococcus faecalis; 1 µg/mL with Enterococcus faecium.
